What was measured:
[1] = molecular target: MAP kinase-activated protein kinase 2 (Homo sapiens) (UniProt P49137); details: Compound concentration 1000.0 nM
[2] = molecular target: Cyclin-dependent kinase 4 (Homo sapiens) (UniProt P11802); details: Compound concentration 1000.0 nM
[3] = molecular target: 5-hydroxytryptamine receptor 2B (Homo sapiens, UniProt P41595); details: Compound concentration 10.0 uM
[4] = molecular target: Mitogen-activated protein kinase 9 (Homo sapiens) (UniProt P45984); details: Compound concentration 1000.0 nM
[5] = molecular target: Cyclin-dependent kinase 2 homolog (Plasmodium falciparum (isolate 3D7)) (UniProt P61075); details: Compound concentration 1000.0 nM
[6] = molecular target: Ephrin type-A receptor 3 (Homo sapiens) (UniProt P29320); details: Compound concentration 1000.0 nM
[7] = molecular target: Melatonin receptor type 1B (Homo sapiens) (UniProt P49286); assay: MT2 (ML1B) (h) CEREP ligand profiling; details: filed as agonist, Compound concentration 10.0 uM
[8] = molecular target: Citron Rho-interacting kinase (Homo sapiens) (UniProt O14578); details: Compound concentration 1000.0 nM
[9] = system: Tyrosine-protein kinase ABL1 (Homo sapiens), P00519 [Q252H]; details: Compound concentration 1000.0 nM
[10] = molecular target: Macrophage colony-stimulating factor 1 receptor (Homo sapiens) (UniProt P07333); details: Compound concentration 1000.0 nM
[11] = molecular target: Inhibitor of nuclear factor kappa-B kinase subunit alpha (Homo sapiens) (UniProt O15111); details: Compound concentration 1000.0 nM
[12] = system: Epidermal growth factor receptor (Homo sapiens), P00533 [L858R]; details: Compound concentration 1000.0 nM
[13] = system: Tyrosine-protein kinase ABL1 (Homo sapiens), P00519 [F317L]; details: Compound concentration 1000.0 nM
[14] = molecular target: Uncharacterized serine/threonine-protein kinase SBK3 (Homo sapiens) (UniProt P0C264); details: Compound concentration 1000.0 nM
[15] = system: Mast/stem cell growth factor receptor Kit (Homo sapiens), P10721 [V559D,V654A]; details: Compound concentration 1000.0 nM
[16] = system: Tyrosine-protein kinase ABL1 (Homo sapiens), P00519 [H396P]; details: Compound concentration 1000.0 nM
[17] = molecular target: Rho-associated protein kinase 1 (Homo sapiens) (UniProt Q13464); details: Compound concentration 1000.0 nM
[18] = molecular target: T1, Muscarinic acetylcholine receptor M4 (Homo sapiens) (UniProt P08173); details: Compound concentration 10.0 uM
T1 sequence (whole entry): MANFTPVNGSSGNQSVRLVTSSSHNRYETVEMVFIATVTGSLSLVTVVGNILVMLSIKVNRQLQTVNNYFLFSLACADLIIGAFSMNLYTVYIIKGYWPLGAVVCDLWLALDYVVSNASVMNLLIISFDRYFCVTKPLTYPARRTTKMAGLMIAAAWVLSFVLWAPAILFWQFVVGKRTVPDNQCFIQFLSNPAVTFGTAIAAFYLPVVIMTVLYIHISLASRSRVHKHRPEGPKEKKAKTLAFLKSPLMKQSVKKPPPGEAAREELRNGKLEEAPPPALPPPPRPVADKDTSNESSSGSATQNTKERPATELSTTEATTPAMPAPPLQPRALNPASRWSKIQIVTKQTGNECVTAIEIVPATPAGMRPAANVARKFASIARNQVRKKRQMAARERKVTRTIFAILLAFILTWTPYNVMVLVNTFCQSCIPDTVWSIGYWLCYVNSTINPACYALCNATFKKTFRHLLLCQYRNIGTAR

[19] = molecular target: T2, Muscarinic acetylcholine receptor M1 (Homo sapiens) (UniProt P11229); details: Compound concentration 10.0 uM
T2 sequence (whole entry): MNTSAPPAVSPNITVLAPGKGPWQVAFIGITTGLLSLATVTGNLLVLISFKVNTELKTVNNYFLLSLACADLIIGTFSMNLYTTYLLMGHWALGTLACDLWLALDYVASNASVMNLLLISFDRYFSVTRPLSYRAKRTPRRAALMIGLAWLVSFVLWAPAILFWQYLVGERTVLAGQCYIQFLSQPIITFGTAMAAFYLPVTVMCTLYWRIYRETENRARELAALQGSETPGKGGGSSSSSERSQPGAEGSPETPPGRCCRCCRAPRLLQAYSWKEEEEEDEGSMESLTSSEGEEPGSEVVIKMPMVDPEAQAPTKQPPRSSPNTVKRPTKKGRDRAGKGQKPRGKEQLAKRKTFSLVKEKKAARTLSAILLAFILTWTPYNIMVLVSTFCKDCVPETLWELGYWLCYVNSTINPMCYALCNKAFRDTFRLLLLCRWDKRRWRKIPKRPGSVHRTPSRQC

[20] = molecular target: Receptor-interacting serine/threonine-protein kinase 2 (Homo sapiens) (UniProt O43353); details: Compound concentration 1000.0 nM
[21] = molecular target: Vascular endothelial growth factor receptor 2 (Homo sapiens) (UniProt P35968); details: Compound concentration 1000.0 nM
[22] = molecular target: Dual specificity protein kinase CLK4 (Homo sapiens) (UniProt Q9HAZ1); details: Compound concentration 1000.0 nM
[23] = molecular target: Mitogen-activated protein kinase kinase kinase 9 (Homo sapiens) (UniProt P80192); details: Compound concentration 1000.0 nM
[24] = molecular target: Tyrosine-protein kinase Lyn (Homo sapiens) (UniProt P07948); details: Compound concentration 1000.0 nM
[25] = molecular target: Serine/threonine-protein kinase PAK 3 (Homo sapiens) (UniProt O75914); details: Compound concentration 1000.0 nM
[26] = molecular target: Serine/threonine-protein kinase 35 (Homo sapiens) (UniProt Q8TDR2); details: Compound concentration 1000.0 nM
[27] = molecular target: Serine/threonine-protein kinase Chk2 (Homo sapiens) (UniProt O96017); details: Compound concentration 1000.0 nM
[28] = molecular target: Vasopressin V1a receptor (Homo sapiens) (UniProt P37288); assay: V1a (h) CEREP ligand profiling; details: filed as agonist, Compound concentration 10.0 uM
[29] = molecular target: Dual specificity protein kinase CLK3 (Homo sapiens) (UniProt P49761); details: Compound concentration 1000.0 nM
[30] = system: Receptor-type tyrosine-protein kinase FLT3 (Homo sapiens), P36888 [D835H]; details: Compound concentration 1000.0 nM
[31] = molecular target: Calcium/calmodulin-dependent protein kinase type 1 (Homo sapiens) (UniProt Q14012); details: Compound concentration 1000.0 nM
[32] = molecular target: 5-hydroxytryptamine receptor 6 (Homo sapiens) (UniProt P50406); details: Compound concentration 10.0 uM
Sequence of 5-hydroxytryptamine receptor 6 (Homo sapiens) (P50406 whole entry): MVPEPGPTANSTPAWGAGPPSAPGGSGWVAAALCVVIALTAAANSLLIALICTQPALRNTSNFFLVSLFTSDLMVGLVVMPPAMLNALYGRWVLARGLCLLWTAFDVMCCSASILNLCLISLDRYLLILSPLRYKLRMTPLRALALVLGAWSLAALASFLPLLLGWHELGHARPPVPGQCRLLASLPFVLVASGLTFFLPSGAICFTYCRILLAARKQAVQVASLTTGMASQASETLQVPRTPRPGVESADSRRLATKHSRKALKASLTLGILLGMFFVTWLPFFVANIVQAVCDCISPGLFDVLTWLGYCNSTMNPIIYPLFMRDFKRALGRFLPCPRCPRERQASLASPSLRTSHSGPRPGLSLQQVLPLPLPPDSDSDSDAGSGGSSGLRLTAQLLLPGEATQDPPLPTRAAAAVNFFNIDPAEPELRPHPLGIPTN

Sequence of Serine/threonine-protein kinase PAK 3 (Homo sapiens) (O75914 whole entry, looked up): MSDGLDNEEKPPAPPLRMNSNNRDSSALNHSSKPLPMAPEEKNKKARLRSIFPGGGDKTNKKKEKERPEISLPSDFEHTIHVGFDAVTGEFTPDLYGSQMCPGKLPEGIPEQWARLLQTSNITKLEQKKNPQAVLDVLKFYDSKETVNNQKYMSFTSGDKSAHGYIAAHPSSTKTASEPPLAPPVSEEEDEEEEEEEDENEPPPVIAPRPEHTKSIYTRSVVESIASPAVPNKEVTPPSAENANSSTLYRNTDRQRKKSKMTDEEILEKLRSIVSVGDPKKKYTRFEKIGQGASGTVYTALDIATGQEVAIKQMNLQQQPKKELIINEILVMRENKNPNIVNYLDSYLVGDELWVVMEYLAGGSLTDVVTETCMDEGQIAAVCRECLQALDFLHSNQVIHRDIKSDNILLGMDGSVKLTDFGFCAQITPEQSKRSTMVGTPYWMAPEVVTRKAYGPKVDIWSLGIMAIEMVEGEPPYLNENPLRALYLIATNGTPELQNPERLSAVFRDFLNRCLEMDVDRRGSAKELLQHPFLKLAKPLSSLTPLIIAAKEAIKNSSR
Sequence of Rho-associated protein kinase 1 (Homo sapiens) (Q13464 2-1354 limits assumed): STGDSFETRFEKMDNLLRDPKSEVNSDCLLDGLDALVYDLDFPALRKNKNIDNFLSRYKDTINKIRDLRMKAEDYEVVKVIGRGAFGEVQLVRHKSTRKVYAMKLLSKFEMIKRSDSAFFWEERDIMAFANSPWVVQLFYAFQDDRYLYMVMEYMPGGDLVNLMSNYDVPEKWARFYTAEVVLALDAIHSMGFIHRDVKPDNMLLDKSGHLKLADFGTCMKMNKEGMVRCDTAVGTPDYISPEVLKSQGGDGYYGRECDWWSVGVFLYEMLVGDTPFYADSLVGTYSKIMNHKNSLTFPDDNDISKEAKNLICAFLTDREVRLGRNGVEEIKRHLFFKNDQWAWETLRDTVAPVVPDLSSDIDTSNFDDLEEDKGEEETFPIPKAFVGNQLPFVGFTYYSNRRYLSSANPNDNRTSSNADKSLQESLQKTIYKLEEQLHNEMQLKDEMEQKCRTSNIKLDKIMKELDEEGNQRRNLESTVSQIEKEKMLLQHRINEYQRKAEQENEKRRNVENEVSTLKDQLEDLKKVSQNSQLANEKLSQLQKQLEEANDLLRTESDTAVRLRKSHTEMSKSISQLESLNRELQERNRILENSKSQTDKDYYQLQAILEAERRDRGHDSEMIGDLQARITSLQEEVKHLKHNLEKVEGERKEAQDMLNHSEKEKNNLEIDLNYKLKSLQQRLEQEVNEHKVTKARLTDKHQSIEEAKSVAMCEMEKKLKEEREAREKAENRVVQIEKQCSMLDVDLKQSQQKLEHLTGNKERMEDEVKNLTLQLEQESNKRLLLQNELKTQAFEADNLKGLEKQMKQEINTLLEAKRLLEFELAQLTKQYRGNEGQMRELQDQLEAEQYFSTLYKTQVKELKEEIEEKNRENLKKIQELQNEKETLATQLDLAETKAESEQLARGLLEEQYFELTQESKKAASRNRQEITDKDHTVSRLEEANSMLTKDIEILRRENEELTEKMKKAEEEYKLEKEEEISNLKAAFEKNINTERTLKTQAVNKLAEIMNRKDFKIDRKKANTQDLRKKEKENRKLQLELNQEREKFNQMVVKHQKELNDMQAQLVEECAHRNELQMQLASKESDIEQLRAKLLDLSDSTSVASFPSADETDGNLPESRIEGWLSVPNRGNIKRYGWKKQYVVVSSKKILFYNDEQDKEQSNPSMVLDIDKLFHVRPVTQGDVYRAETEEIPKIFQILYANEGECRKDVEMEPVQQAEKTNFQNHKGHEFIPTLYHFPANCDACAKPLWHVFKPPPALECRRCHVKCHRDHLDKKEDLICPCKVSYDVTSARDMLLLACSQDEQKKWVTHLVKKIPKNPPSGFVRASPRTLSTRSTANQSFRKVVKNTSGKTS
Sequence of Dual specificity protein kinase CLK3 (Homo sapiens) (P49761 whole entry, looked up): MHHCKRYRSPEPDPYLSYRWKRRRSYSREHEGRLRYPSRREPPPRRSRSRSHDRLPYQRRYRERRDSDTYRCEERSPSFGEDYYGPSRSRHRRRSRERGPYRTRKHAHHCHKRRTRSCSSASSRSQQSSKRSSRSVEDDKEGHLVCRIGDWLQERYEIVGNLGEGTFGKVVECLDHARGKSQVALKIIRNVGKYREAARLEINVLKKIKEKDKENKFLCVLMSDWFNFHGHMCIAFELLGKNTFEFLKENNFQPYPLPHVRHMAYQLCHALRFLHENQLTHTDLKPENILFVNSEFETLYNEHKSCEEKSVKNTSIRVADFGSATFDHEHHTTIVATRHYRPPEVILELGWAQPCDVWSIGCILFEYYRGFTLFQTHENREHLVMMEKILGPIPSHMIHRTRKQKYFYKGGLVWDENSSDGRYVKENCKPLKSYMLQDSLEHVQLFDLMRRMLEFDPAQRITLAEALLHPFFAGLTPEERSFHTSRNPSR
Sequence of Inhibitor of nuclear factor kappa-B kinase subunit alpha (Homo sapiens) (O15111 whole entry): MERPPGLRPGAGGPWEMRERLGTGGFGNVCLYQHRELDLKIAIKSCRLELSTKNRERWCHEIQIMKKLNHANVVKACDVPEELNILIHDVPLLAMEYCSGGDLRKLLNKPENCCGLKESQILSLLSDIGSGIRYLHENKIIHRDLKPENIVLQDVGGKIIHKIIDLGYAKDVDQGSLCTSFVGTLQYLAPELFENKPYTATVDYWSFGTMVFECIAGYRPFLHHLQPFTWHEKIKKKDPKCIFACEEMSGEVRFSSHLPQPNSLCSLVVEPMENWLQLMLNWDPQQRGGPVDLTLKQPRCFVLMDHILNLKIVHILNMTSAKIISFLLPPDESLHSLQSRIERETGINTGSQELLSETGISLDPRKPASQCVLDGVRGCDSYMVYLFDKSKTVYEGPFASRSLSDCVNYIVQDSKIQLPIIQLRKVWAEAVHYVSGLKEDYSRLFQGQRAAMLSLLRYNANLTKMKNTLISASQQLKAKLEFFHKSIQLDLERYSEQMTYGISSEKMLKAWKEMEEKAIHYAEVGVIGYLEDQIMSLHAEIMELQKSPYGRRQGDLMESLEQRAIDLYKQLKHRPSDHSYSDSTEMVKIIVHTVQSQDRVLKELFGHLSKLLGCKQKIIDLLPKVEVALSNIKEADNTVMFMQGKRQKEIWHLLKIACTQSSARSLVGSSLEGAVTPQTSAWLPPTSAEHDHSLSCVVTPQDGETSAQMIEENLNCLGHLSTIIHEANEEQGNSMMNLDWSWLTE
Sequence of Mast/stem cell growth factor receptor Kit (Homo sapiens), P10721 [V559D,V654A] (P10721 whole entry V559D/V654A): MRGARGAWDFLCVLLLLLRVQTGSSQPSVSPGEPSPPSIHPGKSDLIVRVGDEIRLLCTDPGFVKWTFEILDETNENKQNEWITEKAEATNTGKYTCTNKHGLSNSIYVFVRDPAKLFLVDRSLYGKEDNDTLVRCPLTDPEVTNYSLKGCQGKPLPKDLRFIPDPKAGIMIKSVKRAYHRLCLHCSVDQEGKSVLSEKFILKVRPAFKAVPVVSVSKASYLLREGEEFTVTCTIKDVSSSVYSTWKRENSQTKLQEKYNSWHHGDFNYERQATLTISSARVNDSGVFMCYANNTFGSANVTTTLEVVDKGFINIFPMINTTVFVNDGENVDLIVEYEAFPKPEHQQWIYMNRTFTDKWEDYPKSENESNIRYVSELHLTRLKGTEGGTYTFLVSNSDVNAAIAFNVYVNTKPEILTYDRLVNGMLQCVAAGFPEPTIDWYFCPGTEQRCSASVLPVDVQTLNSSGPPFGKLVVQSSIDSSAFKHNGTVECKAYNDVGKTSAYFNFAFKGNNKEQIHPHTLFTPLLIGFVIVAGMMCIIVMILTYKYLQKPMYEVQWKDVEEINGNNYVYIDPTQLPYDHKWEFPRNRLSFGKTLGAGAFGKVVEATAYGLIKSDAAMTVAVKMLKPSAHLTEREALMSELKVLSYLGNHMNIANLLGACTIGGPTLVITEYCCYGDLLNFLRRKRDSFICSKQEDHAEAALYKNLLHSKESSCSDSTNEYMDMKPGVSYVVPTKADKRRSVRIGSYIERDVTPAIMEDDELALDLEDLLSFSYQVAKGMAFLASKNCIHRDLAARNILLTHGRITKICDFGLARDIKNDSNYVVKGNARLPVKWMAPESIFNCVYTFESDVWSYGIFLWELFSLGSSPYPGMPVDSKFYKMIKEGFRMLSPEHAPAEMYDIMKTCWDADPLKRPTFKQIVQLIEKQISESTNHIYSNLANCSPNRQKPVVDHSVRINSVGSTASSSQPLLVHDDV
Sequence of Melatonin receptor type 1B (Homo sapiens) (P49286 whole entry): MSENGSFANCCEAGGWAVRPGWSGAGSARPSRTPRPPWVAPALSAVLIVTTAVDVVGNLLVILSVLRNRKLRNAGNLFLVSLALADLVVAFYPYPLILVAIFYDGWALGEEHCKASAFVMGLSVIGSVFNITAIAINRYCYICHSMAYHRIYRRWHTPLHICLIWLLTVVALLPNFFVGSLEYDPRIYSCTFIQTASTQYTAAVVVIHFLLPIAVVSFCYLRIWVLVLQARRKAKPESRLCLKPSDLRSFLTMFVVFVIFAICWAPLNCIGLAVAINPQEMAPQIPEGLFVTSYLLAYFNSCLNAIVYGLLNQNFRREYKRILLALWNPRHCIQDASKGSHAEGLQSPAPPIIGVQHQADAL

Row | SMILES | residual activity [1] | residual activity [2] | inhibition [3] | residual activity [4] | residual activity [5] | residual activity [6] | inhibition [7] | residual activity [8] | residual activity [9] | residual activity [10] | residual activity [11] | residual activity [12] | residual activity [13] | residual activity [14] | residual activity [15] | residual activity [16] | residual activity [17] | inhibition [18] | inhibition [19] | residual activity [20] | other results
1 | CNC(=O)Nc1ccc2c(c1)CC[C@@]21OC(=O)N(CC(=O)N(Cc2ccc(F)cc2)[C@@H](C)C(F)(F)F)C1=O [A-485] | 87% | 91% | 81.4% | 70% | 91% | 100% | 12% | 92% | 72% | 90% | 92% | 96% | 64% | 93% | 90% | 74% | 72% | 11.2% | 2.64% | 100% | residual activity [21]: 83%; residual activity [22]: 90%; residual activity [23]: 89%; residual activity [24]: 89%; residual activity [25]: 91%; residual activity [26]: 89%; residual activity [27]: 100%; inhibition [28]: 10%; residual activity [29]: 83%; residual activity [30]: 86%; residual activity [31]: 95%; inhibition [32]: 32.6%
2 | CNC(=O)Nc1ccc2c(c1)[C@@]1(CC2)OC(=O)N(CC(=O)N(Cc2ccc(F)cc2)[C@@H](C)C(F)(F)F)C1=O [A-486] | 100% | 75% | 29.2% | 69% | 95% | 100% | 8% | 100% | 88% | 100% | 100% | 100% | 66% | 100% | 83% | 83% | 81% | 30.4% | 5.42% | 83% | residual activity [21]: 84%; residual activity [22]: 78%; residual activity [23]: 100%; residual activity [24]: 100%; residual activity [25]: 91%; residual activity [26]: 85%; residual activity [27]: 100%; inhibition [28]: 23%; residual activity [29]: 84%; residual activity [30]: 99%; residual activity [31]: 100%; inhibition [32]: 24.1%

Source: ChEMBL document CHEMBL4507259 (2021)
